# Source: ChEMBL document CHEMBL5338747, “Discovery of Quaternized Pyridine-Thiazole-Pleuromutilin Derivatives with Broad-Spectrum Antibacterial and Potent Anti-MRSA Activity” (J Med Chem, 2023)
# Legend:
# Staphylococcus aureus [1] = assay: Antibacterial activity against methicillin-resistant Staphylococcus aureus ATCC 33591 assessed as inhibition of bacterial growth incubated for 24 hrs by broth microdilution method; type: functional
# Staphylococcus aureus [2] = assay: Antibacterial activity against methicillin-resistant Staphylococcus aureus ATCC 43300 assessed as inhibition of bacterial growth incubated for 24 hrs by broth microdilution method; type: functional
# Staphylococcus aureus [3] = assay: Antibacterial activity against […] assessed as inhibition of bacterial growth incubated for 24 hrs by broth microdilution method; type: functional; conditions: ATCC 29213
# [4] = tested on: Staphylococcus epidermidis; assay: Antibacterial activity against methicillin-resistant Staphylococcus epidermidis ATCC 51625 assessed as inhibition of bacterial growth incubated for 24 hrs by broth microdilution method; type: functional
# Acinetobacter baumannii [5] = assay: Antibacterial activity against Acinetobacter baumannii ATCC 19606 assessed as inhibition of bacterial growth incubated for 24 hrs by broth microdilution method; type: functional
# Salmonella enterica = assay: Antibacterial activity against Salmonella enterica ATCC 14028 assessed as inhibition of bacterial growth incubated for 24 hrs by broth microdilution method; type: functional
# Escherichia coli [6] = assay: Antibacterial activity against Escherichia coli ATCC 25922 assessed as inhibition of bacterial growth incubated for 24 hrs by broth microdilution method; type: functional
# Escherichia coli [7] = assay: Antibacterial activity against Escherichia coli CMCC 44103 assessed as inhibition of bacterial growth incubated for 24 hrs by broth microdilution method; type: functional
# Staphylococcus aureus [8] = assay: Antibacterial activity against methicillin-resistant Staphylococcus aureus 171 assessed as inhibition of bacterial growth incubated for 24 hrs by broth microdilution method; type: functional
# Staphylococcus aureus [9] = assay: Antibacterial activity against methicillin-resistant Staphylococcus aureus 575 assessed as inhibition of bacterial growth incubated for 24 hrs by broth microdilution method; type: functional
# Staphylococcus aureus [10] = assay: Antibacterial activity against methicillin-resistant Staphylococcus aureus 206 assessed as inhibition of bacterial growth incubated for 24 hrs by broth microdilution method; type: functional
# Staphylococcus aureus [11] = assay: Antibacterial activity against methicillin-resistant Staphylococcus aureus 222 assessed as inhibition of bacterial growth incubated for 24 hrs by broth microdilution method; type: functional
# Staphylococcus aureus [12] = assay: Antibacterial activity against methicillin-resistant Staphylococcus aureus 596 assessed as inhibition of bacterial growth incubated for 24 hrs by broth microdilution method; type: functional
# Enterococcus = assay: Antibacterial activity against vancomycin-resistant Enterococcus 80 assessed as inhibition of bacterial growth incubated for 24 hrs by broth microdilution method; type: functional
# Pseudomonas aeruginosa = assay: Antibacterial activity against multidrug-resistant Pseudomonas aeruginosa 126 assessed as inhibition of bacterial growth incubated for 24 hrs by broth microdilution method; type: functional
# Klebsiella pneumoniae = assay: Antibacterial activity against multidrug-resistant Klebsiella pneumoniae 893 assessed as inhibition of bacterial growth incubated for 24 hrs by broth microdilution method; type: functional
# Acinetobacter baumannii [13] = assay: Antibacterial activity against carbapenem-resistant Acinetobacter baumannii 882 assessed as inhibition of bacterial growth incubated for 24 hrs by broth microdilution method; type: functional
# [14] = Aqueous solubility of the compound in physiological saline measured after 12 hrs by UV spectrophotometric analysis; type: physicochemical
# [15] = Cytotoxicity against human HEK293 cells assessed as reduction in cell viability measured after 48 hrs by CCK8 assay; type: toxicity, cell-based
# [16] = Cytotoxicity against human A549 cells assessed as reduction in cell viability measured after 48 hrs by CCK8 assay; type: toxicity, cell-based
# [17] = Cytotoxicity against human HepG2 cells assessed as reduction in cell viability measured after 48 hrs by CCK8 assay; type: toxicity, cell-based
SMILES,MIC (Staphylococcus aureus [1]) [µg/mL],MIC (Staphylococcus aureus [2]) [µg/mL],MIC (Staphylococcus aureus [3]) [µg/mL],MIC [4] [µg/mL],MIC (Acinetobacter baumannii [5]) [µg/mL],MIC (Salmonella enterica) [µg/mL],MIC (Escherichia coli [6]) [µg/mL],MIC (Escherichia coli [7]) [µg/mL],MIC (Staphylococcus aureus [8]) [µg/mL],MIC (Staphylococcus aureus [9]) [µg/mL],MIC (Staphylococcus aureus [10]) [µg/mL],MIC (Staphylococcus aureus [11]) [µg/mL],MIC (Staphylococcus aureus [12]) [µg/mL],MIC (Enterococcus) [µg/mL],MIC (Pseudomonas aeruginosa) [µg/mL],MIC (Klebsiella pneumoniae) [µg/mL],MIC (Acinetobacter baumannii [13]) [µg/mL],solubility at 12 h [14] [µM],CC50 at 48 h [15] [µM],CC50 at 48 h [16] [µM],also measured
C=C[C@]1(C)C[C@@H](OC(=O)CSc2nc(-c3cc[n+](Cc4ccc(OC)cc4)cc3)cs2)[C@]2(C)[C@H](C)CC[C@]3(CCC(=O)[C@H]32)[C@@H](C)[C@@H]1O.[Br-],1,1,0.5,4,2,0.5,0.5,1,16,32,16,4,8,2,64,64,8,653,95.4,87.4,CC50 at 48 h [17]: > 100 µM
COc1c(N2C[C@@H]3CCCN[C@@H]3C2)c(F)cc2c(=O)c(C(=O)O)cn(C3CC3)c12 [MOXIFLOXACIN],1,0.25,0.062,0.5,2,2,0.125,0.25,32,8,4,0.5,2,0.5,8,16,32,,,,
Br.C=C[C@]1(C)C[C@@H](OC(=O)CSc2nc(-c3cc[n+](Cc4ccc([N+](=O)[O-])cc4)cc3)cs2)[C@]2(C)[C@H](C)CC[C@]3(CCC(=O)[C@H]32)[C@@H](C)[C@@H]1O,1,0.5,0.125,2,2,2,1,0.5,64,16,16,2,2,8,8,16,16,754,86.7,> 100,CC50 at 48 h [17]: 75.8 µM
C=C[C@]1(C)C[C@@H](OC(=O)CS[C@@H]2C[C@H]3CC[C@@H](C2)N3C)[C@]2(C)[C@H](C)CC[C@]3(CCC(=O)[C@H]32)[C@@H](C)[C@@H]1O [RETAPAMULIN],32,16,4,64,4,128,32,32,128,64,128,32,32,> 128,128,64,64,289,83.8,> 100,CC50 at 48 h [17]: 76.5 µM
C=C[C@]1(C)C[C@@H](OC(=O)CSc2nc(-c3cc[n+](Cc4ccc(F)cc4)cc3)cs2)[C@]2(C)[C@H](C)CC[C@]3(CCC(=O)[C@H]32)[C@@H](C)[C@@H]1O.[Br-],2,8,1,4,16,1,2,1,,,,,,,,,,807,,,
